“And” between values parts separate entries of the source, which are not always exact repeats. Equal values may be shown once. ± gives the expanded uncertainty stated by the source.
Details: Liquid, Ebulliometric method (Recirculating still)

Row | SMILES | vapor or sublimation pressure (388.6 K) [kPa] | vapor or sublimation pressure (396.1 K) [kPa] | vapor or sublimation pressure (400.4 K) [kPa] | vapor or sublimation pressure (402.3 K) [kPa] | vapor or sublimation pressure (404.2 K) [kPa] | vapor or sublimation pressure (407.5 K) [kPa] | vapor or sublimation pressure (407.8 K) | vapor or sublimation pressure (408.2 K) [kPa] | vapor or sublimation pressure (416.7 K) [kPa] | vapor or sublimation pressure (421.5 K) [kPa] | vapor or sublimation pressure (423.7 K) [kPa] | vapor or sublimation pressure (425.8 K) [kPa] | vapor or sublimation pressure (428.8 K) | vapor or sublimation pressure (429.7 K) [kPa]
1 | CCOCCO [2-ethoxyethan-1-ol] | 53.33 ± 2.4 | 69.33 ± 2.5 | 80 ± 2.8 | 85.33 ± 3 | 90.66 ± 3.2 | 100.93 ± 3.3 | 101.33 ± 3.1 kPa and 100.93 ± 5.6 kPa |  |  |  |  |  |  | 
2 | CCOCCOC(C)=O [2-ethoxyethyl ethanoate] |  |  |  |  |  |  |  | 53.33 ± 2.1 | 69.33 ± 2.2 | 80 ± 2.5 | 85.33 ± 2.7 | 90.66 ± 3.3 | 101.33 ± 3.7 kPa and 100.93 ± 5.5 kPa | 100.93 ± 2.8

From the NIST ThermoML archive (doi:10.1021/je300202z)
